# Measurements from ChEMBL document CHEMBL4330118, “Structure-guided discovery of a novel, potent, and orally bioavailable 3,5-dimethylisoxazole aryl-benzimidazole BET bromodomain inhibitor” (Bioorg Med Chem, 2019).
# What was measured:
# Format in all cases: ADME, organism-based
# [1] = Plasma concentration in mouse xenografted with human SU-DHL10 cells at 1 mg/kg, po administered twice daily via gavage for 21 days measured at 2 hrs post last dose
# [2] = Plasma concentration in mouse xenografted with human SU-DHL10 cells at 3 mg/kg, po administered twice daily via gavage for 21 days measured at 2 hrs post last dose
# [3] = Plasma concentration in mouse xenografted with human SU-DHL10 cells at 10 mg/kg, po administered twice daily via gavage for 21 days measured at 2 hrs post last dose
# [4] = Plasma concentration in mouse xenografted with human SU-DHL10 cells at 20 mg/kg, po administered twice daily via gavage for 21 days measured at 2 hrs post last dose
# [5] = Plasma concentration in mouse xenografted with human SU-DHL10 cells at 10 mg/kg, po administered once daily via gavage for 21 days measured at 2 hrs post last dose
# [6] = Plasma concentration in mouse xenografted with human SU-DHL10 cells at 1 mg/kg, po administered twice daily via gavage for 21 days measured at 12 hrs post last dose
# [7] = Plasma concentration in mouse xenografted with human SU-DHL10 cells at 3 mg/kg, po administered twice daily via gavage for 21 days measured at 12 hrs post last dose
# [8] = Plasma concentration in mouse xenografted with human SU-DHL10 cells at 10 mg/kg, po administered twice daily via gavage for 21 days measured at 12 hrs post last dose
# [9] = Plasma concentration in mouse xenografted with human SU-DHL10 cells at 20 mg/kg, po administered twice daily via gavage for 21 days measured at 12 hrs post last dose
# [10] = Plasma concentration in mouse xenografted with human SU-DHL10 cells at 10 mg/kg, po administered once daily via gavage for 21 days measured at 12 hrs post last dose
compound,measurement,setting,value
Cc1ccc2ncccc2c1-c1cc(-c2c(C)noc2C)cc2nc(C3CC3)[nH]c12,concentration at 2 h,[1],556 nM
same,concentration at 2 h,[2],2620 nM
same,concentration at 2 h,[3],4320 nM
same,concentration at 2 h,[4],4780 nM
same,concentration at 2 h,[5],5830 nM
same,concentration at 12 h,[6],13 nM
same,concentration at 12 h,[7],18 nM
same,concentration at 12 h,[8],32 nM
same,concentration at 12 h,[9],32 nM
same,concentration at 12 h,[10],207 nM
